Legend:
Experiment in all cases: Tumor cell proliferation inhibition (Promega cell viability, 72 h)
Assay type in all cases: cell-based
BT-20 = conditions: Homo sapiens, BT-20 cells, read-out: Anti-proliferation IC50
Experimental: (§1) The cell lines used in the experiment are various tumor cells, including DU4475, Colo205, HepG2, PLC/PRF/5, BT-20, LS174T, NCI-H929, HCT116, SW620, SK-CO-1, SW480, DLD1, HT-29, SW900, SW1417, HuH7, H2009, PANC-1, SW48, Duadi, H358, HCT15, 22Rv1, Hela, RKO, Raji, Jurkat, NCI-H716, MDA-MB-231, NCI-H157 and THP1, and the inhibitory effect of the compound of the present disclosure on the proliferation of these tumor cells is determined, in order to screen out sensitive cell types of the compound of the present disclosure.
(§2) DU4475, Colo205, HepG2, PLC/PRF/5, BT-20, LS174T, NCI-H929, HCT116, SW620, SK-CO-1, SW480, DLD1, HT-29, SW900, SW1417, HuH7, H2009, PANC-1, SW48, Duadi, H358, HCT15, 22Rv1, Hela, RKO, Raji, Jurkat, NCI-H716, MDA-MB-231, NCI-H157 and THP1 cell lines cultured in each medium were treated during the logarithmic growth phase, and the cells were collected and prepared into a uniform cell suspension of known concentration, and then added to the 96-well cell culture plate to make each well contain 1000 cells. Put it into a 5% CO2 incubator and incubate at 37° C. for 20-24 h. The next day, the fully dissolved 3-fold gradient diluted compound was added to each cell culture well, so that the final maximum concentration in the cell culture well was 20 μM, and the culture was continued for 72 hours. In this test, Promega's cell viability detection test is used for detection. The more the cells proliferate, the stronger the final signal intensity will be. The detection instrument is SpectraMax, full wavelength mode. The wells with only DMSO added were used as positive control wells, and the wells without cells inoculated were used as negative control wells. The IC50 value of each compound for different cell proliferation inhibition was calculated to evaluate the inhibitory effect of the compound on different tumor cells.

PANC-1 = conditions: Homo sapiens, PANC-1 cells, read-out: Anti-proliferation IC50
Experimental: as §1, §2

SW900 = conditions: Homo sapiens, SW900 cells, read-out: Anti-proliferation IC50
Experimental: as §1, §2

Hela = conditions: Homo sapiens, Hela cells, read-out: Anti-proliferation IC50
Experimental: as §1, §2

SW620 = conditions: Homo sapiens, SW-620, SW620 cells, read-out: Anti-proliferation IC50
Experimental: as §1, §2

NCI-H157 = conditions: Homo sapiens, NCI-H157 cells, read-out: Anti-proliferation IC50
Experimental: as §1, §2

22Rv1 = conditions: Homo sapiens, 22Rv1 cells, read-out: Anti-proliferation IC50
Experimental: as §1, §2

RKO = conditions: Homo sapiens, RKO cells, read-out: Anti-proliferation IC50
Experimental: as §1, §2

NCI-H716 = conditions: Homo sapiens, NCI-H716 cells, read-out: Anti-proliferation IC50
Experimental: as §1, §2

PLC/PRF/5 = conditions: Homo sapiens, PLC/PRF/5 cells, read-out: Anti-proliferation IC50
Experimental: as §1, §2

SK-CO-1 = conditions: Homo sapiens, SK-CO-1 cells, read-out: Anti-proliferation IC50
Experimental: as §1, §2

HuH7 = conditions: Homo sapiens, Huh-7, HuH7 cells, read-out: Anti-proliferation IC50
Experimental: as §1, §2

HCT15 = conditions: Homo sapiens, HCT-15, HCT15 cells, read-out: Anti-proliferation IC50
Experimental: as §1, §2

H358 = conditions: Homo sapiens, NCI-H358, H358 cells, read-out: Anti-proliferation IC50
Experimental: as §1, §2

DLD1 = conditions: Homo sapiens, DLD-1, DLD1 cells, read-out: Anti-proliferation IC50
Experimental: as §1, §2

Raji = conditions: Homo sapiens, Raji cells, read-out: Anti-proliferation IC50
Experimental: as §1, §2

LS174T = conditions: Homo sapiens, LS174T cells, read-out: Anti-proliferation IC50
Experimental: as §1, §2

SW1417 = conditions: Homo sapiens, SW1417 cells, read-out: Anti-proliferation IC50
Experimental: as §1, §2

THP1 = conditions: Homo sapiens, THP-1, THP1 cells, read-out: Anti-proliferation IC50
Experimental: as §1, §2

Colo205 = conditions: Homo sapiens, COLO 205, Colo205 cells, read-out: Anti-proliferation IC50
Experimental: as §1, §2

HT-29 = conditions: Homo sapiens, HT-29 cells, read-out: Anti-proliferation IC50
Experimental: as §1, §2

SW480 = conditions: Homo sapiens, SW480 cells, read-out: Anti-proliferation IC50
Experimental: as §1, §2

Jurkat = conditions: Homo sapiens, Jurkat cells, read-out: Anti-proliferation IC50
Experimental: as §1, §2

MDA-MB-231 = conditions: Homo sapiens, MDA-MB-231 cells, read-out: Anti-proliferation IC50
Experimental: as §1, §2

DU4475 = conditions: Homo sapiens, DU-4475, DU4475 cells, read-out: Anti-proliferation IC50
Experimental: as §1, §2

Duadi = Duadi cells, read-out: Anti-proliferation IC50
Experimental: as §1, §2

Compound	IC50 (BT-20) [nM]	IC50 (PANC-1) [nM]	IC50 (SW900) [nM]	IC50 (Hela) [nM]	IC50 (SW620) [nM]	IC50 (NCI-H157) [nM]	IC50 (22Rv1) [nM]	IC50 (RKO) [nM]	IC50 (NCI-H716) [nM]	IC50 (PLC/PRF/5) [nM]	IC50 (SK-CO-1) [nM]	IC50 (HuH7) [nM]	IC50 (HCT15) [nM]	IC50 (H358) [nM]	IC50 (DLD1) [nM]	IC50 (Raji) [nM]	IC50 (LS174T) [nM]	IC50 (SW1417) [nM]	IC50 (THP1) [nM]	IC50 (Colo205) [nM]	also measured
Cc1nc(C(F)(F)F)ncc1Oc1ccc(CNc2nc(C)c3c(n2)N(C)[C@@H](C)C(=O)N3)cn1 [AN10250484]	22	47.5	26.6	> 10000	284	> 10000	> 10000	> 10000	> 10000	18	285	61.3	> 10000	> 10000	315	> 10000	26.3	33.4	> 10000	9	IC50 (HT-29): 352 nM; IC50 (SW480): 300 nM; IC50 (Jurkat): > 10000 nM; IC50 (MDA-MB-231): > 10000 nM; IC50 (DU4475): 7.9 nM; IC50 (Duadi): > 10000 nM
[2H]C([2H])([2H])N1c2nc(NCc3ccc(Oc4cnc(C(F)(F)F)nc4)nc3)nc3c2N(CCC3)C(=O)[C@]1(C)CO [AN10250399]	135	140	57.2	> 10000	100	> 10000	> 10000	> 10000	> 10000	62.6	341	106	> 10000	> 10000	96.6	> 10000	102	170	> 10000	43	IC50 (HT-29): 131 nM; IC50 (SW480): 300 nM; IC50 (Jurkat): > 10000 nM; IC50 (MDA-MB-231): > 10000 nM; IC50 (DU4475): 36.9 nM; IC50 (Duadi): > 10000 nM

— patent US20240085425A1, “BIOMARKER AND APPLICATION THEREOF” (ADLAI NORTYE BIOPHARMA CO., LTD., priority 2022, published 2024)
